Earlier results in patent US20220211725A1, “Pharmaceutical Composition Comprising Venetoclax” (Alembic Pharmaceuticals Limited, priority 2019, published 2022).

Settings: background description

In the case of CC1(C)CCC(CN2CCN(c3ccc(C(=O)NS(=O)(=O)c4ccc(NCC5CCOCC5)c([N+](=O)[O-])c4)c(Oc4cnc5[nH]ccc5c4)c3)CC2)=C(c2ccc(Cl)cc2)C1 [Venetoclax], the aqueous solubility is listed as “very low”.
